How the values were obtained:
Type in all cases: in vivo
[1] = test system: barnyardgrass (Echinochloa crus-galli); assay: Test B flooded paddy test plant response
Outline: (§1)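 Rice, umbrella sedge, ducksalad and barnyardgrass at 2-leaf stage; pots flooded to 3 cm, compounds applied into paddy water, depth held throughout. Greenhouse 13 to 15 days, then visual rating vs untreated controls on 0–100 scale (0 no effect, 100 complete control); dash means no test result.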

rice (Oryza sativa) = assay: Test B flooded paddy test plant response
Outline: as §1

wild oat (Avena fatua) = assay: Test B pre-/postemergence plant response; conditions: for Oat, Wild plant response rating: 8 g ai/ha
Outline: (§2)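 Preemergence and postemergence (plants 2-18 cm, 1- to 4-leaf stage) applications used test chemicals in a non-phytotoxic solvent with surfactant. Plants were held in a greenhouse 13 to 15 days, then rated visually against controls on a 0-100 scale (0 no effect, 100 complete control).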

[2] = test system: morningglory (Ipomoea coccinea); assay: Test B pre-/postemergence plant response; conditions: for Morningglory plant response rating: 8 g ai/ha
Outline: as §2

[3] = test system: eastern black (E.B.) nightshade (Solanum ptycanthum); assay: Test B pre-/postemergence plant response; conditions: Preemergence
Outline: as §2

[4] = test system: pigweed (Amaranthus retroflexus); assay: Test B pre-/postemergence plant response; conditions: for Pigweed plant response rating: 8 g ai/ha
Outline: as §2

[5] = test system: large crabgrass (Digitaria sanguinalis); assay: Test B pre-/postemergence plant response; conditions: for Crabgrass, Large plant response rating: 8 g ai/ha
Outline: as §2

[6] = test system: blackgrass (Alopecurus myosuroides); assay: Test B pre-/postemergence plant response; conditions: for Blackgrass plant response rating: 8 g ai/ha
Outline: as §2

[7] = test system: catchweed bedstraw (Galium aparine); assay: Test B pre-/postemergence plant response; conditions: Preemergence
Outline: as §2

[8] = test system: johnsongrass (Sorghum halepense); assay: Test B pre-/postemergence plant response; conditions: for Johnsongrass plant response rating: 8 g ai/ha
Outline: as §2

[9] = test system: common ragweed (Ambrosia elation); assay: Test B pre-/postemergence plant response; conditions: for Ragweed plant response rating: 8 g ai/ha
Outline: as §2

[10] = test system: downy bromegrass (Bromus tectorum); assay: Test B pre-/postemergence plant response; conditions: for Bromegrass, Downy plant response rating: 8 g ai/ha
Outline: as §2

[11] = test system: Italian ryegrass (Lolium multiflorum); assay: Test B pre-/postemergence plant response; conditions: for Ryegrass, Italian plant response rating: 8 g ai/ha
Outline: as §2

[12] = test system: common (oilseed) sunflower (Helianthus annuus); assay: Test B pre-/postemergence plant response; conditions: Preemergence
Outline: as §2

[13] = Flood (flooded paddy test), 62 g ai/ha, scale 0 to 100, 0 no effect, 100 complete control
[14] = Flood (flooded paddy test), 125 g ai/ha, scale 0 to 100, 0 no effect, 100 complete control
[15] = Flood (flooded paddy test), 250 g ai/ha, scale 0 to 100, 0 no effect, 100 complete control
[16] = Flood, 31 g ai/ha, scale 0 to 100
[17] = Postemergence, 16 g ai/ha, scale 0 to 100
[18] = Postemergence, 31 g ai/ha, scale 0 to 100, 0 no effect, 100 complete control
[19] = Postemergence, 62 g ai/ha, scale 0 to 100, 0 no effect, 100 complete control
[20] = Preemergence, 16 g ai/ha, scale 0 to 100 (0 no effect, 100 complete control)
[21] = Preemergence, 31 g ai/ha, 0 to 100 scale, 0 no effect, 100 complete control
[22] = Preemergence, 62 g ai/ha, scale 0 to 100
[23] = 16 g ai/ha, scale 0 to 100 (0 no effect, 100 complete control)
[24] = 31 g ai/ha, 0 to 100 scale, 0 no effect, 100 complete control

CCc1cc(-c2ccc(Cl)cc2)nn1-c1c(OS(C)(=O)=O)cnn(C)c1=O [Compound 39]
10: Plant response rating, Bromegrass, Downy [10, 17]
45: Plant response rating, Bromegrass, Downy [10, 18]
90: Plant response rating, Oat, Wild (wild oat (Avena fatua); [20]) | Plant response rating, Oat, Wild (wild oat (Avena fatua); [21]) | Plant response rating, Crabgrass, Large [5, 17] | Plant response rating, Blackgrass [6, 20] | Plant response rating, Blackgrass [6, 21] | Plant response rating, Blackgrass [6, 22] | Plant response rating, Johnsongrass [8, 20] | Plant response rating, Johnsongrass [8, 21] | Plant response rating, Ryegrass, Italian [11, 17] | Ryegrass, Italian plant response rating ([11]; Preemergence, scale 0 to 100)
0: Plant response rating, Barnyardgrass [1, 16] | Plant response rating, Rice (rice (Oryza sativa); [13]) | Plant response rating, Rice (rice (Oryza sativa); [16]) | Morningglory plant response rating ([2]; postemergence, 0-100 scale) | Plant response rating, Morningglory [2, 17] | Plant response rating, Morningglory [2, 18] | Plant response rating, Morningglory [2, 19] | Plant response rating, Morningglory [2, 20] | Plant response rating, Morningglory [2, 21] | Plant response rating, Morningglory [2, 22] | Morningglory plant response rating ([2]; Preemergence, scale 0 to 100) | Plant response rating, Nightshade, E. B. [3, 23] | Plant response rating, Nightshade, E. B. [3, 24] | Plant response rating, Nightshade, E. B. ([3]; 62 g ai/ha, scale 0 to 100) | Nightshade, E. B. plant response rating ([3]; 8 g ai/ha, scale 0 to 100) | Pigweed plant response rating ([4]; postemergence, 0-100 scale) | Plant response rating, Pigweed [4, 17] | Plant response rating, Pigweed [4, 18] | Plant response rating, Pigweed [4, 19] | Plant response rating, Pigweed [4, 20] | Plant response rating, Pigweed [4, 21] | Plant response rating, Pigweed [4, 22] | Pigweed plant response rating ([4]; Preemergence, scale 0 to 100) | Blackgrass plant response rating ([6]; postemergence, 0-100 scale) | Plant response rating, Blackgrass [6, 17] | Plant response rating, Galium [7, 23] | Plant response rating, Galium [7, 24] | Plant response rating, Galium ([7]; 62 g ai/ha, scale 0 to 100) | Galium plant response rating ([7]; 8 g ai/ha, scale 0 to 100) | Ragweed plant response rating ([9]; postemergence, 0-100 scale) | Plant response rating, Ragweed [9, 17] | Plant response rating, Ragweed [9, 18] | Plant response rating, Ragweed [9, 19] | Plant response rating, Ragweed [9, 20] | Plant response rating, Ragweed [9, 21] | Plant response rating, Ragweed [9, 22] | Ragweed plant response rating ([9]; Preemergence, scale 0 to 100) | Bromegrass, Downy plant response rating ([10]; Preemergence, scale 0 to 100) | Plant response rating, Sunflower [12, 23] | Plant response rating, Sunflower [12, 24] | Plant response rating, Sunflower ([12]; 62 g ai/ha, scale 0 to 100) | Sunflower plant response rating ([12]; 8 g ai/ha, scale 0 to 100)
5: Bromegrass, Downy plant response rating ([10]; postemergence, 0-100 scale)
70: Oat, Wild plant response rating (wild oat (Avena fatua); Preemergence, scale 0 to 100) | Crabgrass, Large plant response rating ([5]; postemergence, 0-100 scale) | Plant response rating, Bromegrass, Downy [10, 20]
30: Ryegrass, Italian plant response rating ([11]; postemergence, 0-100 scale)
100: Plant response rating, Oat, Wild (wild oat (Avena fatua); [18]) | Plant response rating, Oat, Wild (wild oat (Avena fatua); [19]) | Plant response rating, Crabgrass, Large [5, 19] | Plant response rating, Crabgrass, Large [5, 20] | Plant response rating, Crabgrass, Large [5, 21] | Plant response rating, Crabgrass, Large [5, 22] | Plant response rating, Blackgrass [6, 19] | Plant response rating, Ryegrass, Italian [11, 19] | Plant response rating, Ryegrass, Italian [11, 21] | Plant response rating, Ryegrass, Italian [11, 22]
55: Plant response rating, Johnsongrass [8, 17]
65: Plant response rating, Barnyardgrass [1, 14]
75: Johnsongrass plant response rating ([8]; Preemergence, scale 0 to 100)
80: Plant response rating, Barnyardgrass [1, 13] | Plant response rating, Rice (rice (Oryza sativa); [15]) | Plant response rating, Bromegrass, Downy [10, 19]
60: Crabgrass, Large plant response rating ([5]; Preemergence, scale 0 to 100)
50: Plant response rating, Rice (rice (Oryza sativa); [14])
98: Plant response rating, Crabgrass, Large [5, 18]
85: Plant response rating, Barnyardgrass [1, 15] | Plant response rating, Bromegrass, Downy [10, 21] | Plant response rating, Bromegrass, Downy [10, 22]
95: Oat, Wild plant response rating (wild oat (Avena fatua); postemergence, 0-100 scale) | Plant response rating, Oat, Wild (wild oat (Avena fatua); [17]) | Plant response rating, Oat, Wild (wild oat (Avena fatua); [22]) | Plant response rating, Blackgrass [6, 18] | Plant response rating, Johnsongrass [8, 18] | Plant response rating, Johnsongrass [8, 19] | Plant response rating, Johnsongrass [8, 22] | Plant response rating, Ryegrass, Italian [11, 18] | Plant response rating, Ryegrass, Italian [11, 20]
40: Blackgrass plant response rating ([6]; Preemergence, scale 0 to 100) | Johnsongrass plant response rating ([8]; postemergence, 0-100 scale)

Reference: patent US20100267561A1, “HERBICIDAL PYRIDAZINONE DERIVATIVES” (priority 2007, published 2010)
